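Dose response: 5 concentrations. Exposure: 48 h. Format: 96-well plates. Endpoint: linear interpolation; highest concentration if not reached. TGI: concentration producing complete growth inhibition.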
How the values were obtained:
Test in all cases: NCI-60 cell line screen, 48 h
[1] = system: UO-31 renal
[2] = system: SK-MEL-28 melanoma
[3] = system: BT-549 breast
[4] = system: HCC-2998 colon
[5] = system: DU-145 prostate
[6] = system: KM12 colon
[7] = system: SNB-19 CNS
[8] = system: HCT-15 colon
[9] = system: U251 CNS
[10] = system: T-47D breast
[11] = system: NCI-H460 lung
[12] = system: RPMI-8226 leukemia
[13] = system: RXF 393 renal
[14] = system: HS 578T breast
[15] = system: MDA-MB-231 breast
[16] = system: 786-0 renal
[17] = system: MALME-3M melanoma
[18] = system: SW-620 colon
[19] = system: HOP-62 NSCLC
[20] = system: UACC-257 melanoma
[21] = system: HCT-116 colon
[22] = system: NCI-H226 lung
[23] = system: OVCAR-3 ovarian
[24] = system: MCF7 breast
[25] = system: IGROV1 ovarian
[26] = system: SNB-75 CNS
[27] = system: HOP-92 NSCLC
[28] = system: UACC-62 melanoma
[29] = system: OVCAR-8 ovarian
[30] = system: M14 melanoma
[31] = system: A549 NSCLC
[32] = system: OVCAR-5 ovarian
[33] = system: TK-10 renal
[34] = system: OVCAR-4 ovarian
[35] = system: LOX IMVI melanoma
[36] = system: SR leukemia
[37] = system: SF-539 CNS
[38] = system: EKVX NSCLC
[39] = system: MDA-N
[40] = system: HT29 colon
[41] = system: MOLT-4 leukemia
[42] = system: NCI-H23 lung
[43] = system: ACHN renal
[44] = system: NCI-H522 lung
[45] = system: SK-MEL-5 melanoma
[46] = system: HL-60(TB) leukemia
[47] = system: K-562 leukemia
[48] = system: SK-MEL-2 melanoma
[49] = system: CAKI-1 renal
[50] = system: PC-3 prostate
[51] = system: CCRF-CEM leukemia
[52] = system: SF-268 CNS
[53] = system: A498 renal
[54] = system: SF-295 CNS
[55] = system: SN12C renal
[56] = system: NCI/ADR-RES ovarian
[57] = system: MDA-MB-435
[58] = system: COLO 205 colon
[59] = system: SK-OV-3 ovarian

With `COC(=O)c1c(C)cccc1/C=C1\Cc2cc(C)cc(C)c2C1=O` the TGI [1] was greater than 100 µM, the TGI [2] was greater than 100 µM and the TGI [3] was greater than 100 µM. For the same molecule, the TGI [4] was greater than 100 µM, the TGI [5] was greater than 100 µM and the TGI [6] was greater than 100 µM. The TGI [7] was greater than 100 µM, the TGI [8] was greater than 100 µM and the TGI [9] was 48.2 µM. The TGI [10] was greater than 100 µM, the TGI [11] was greater than 100 µM and the TGI [12] was greater than 100 µM. For the same molecule, the TGI [13] was 58.5 µM, the TGI [14] was 69.7 µM and the TGI [15] was greater than 100 µM. The TGI [16] was greater than 100 µM, the TGI [17] was greater than 100 µM and the TGI [18] was greater than 100 µM. It also gave a TGI [19] of 37.7 µM, a TGI [20] greater than 100 µM and a TGI [21] greater than 100 µM. The TGI [22] was greater than 100 µM, the TGI [23] was greater than 100 µM and the TGI [24] was greater than 100 µM. For the same molecule, the TGI [25] was greater than 100 µM, the TGI [26] was 38.4 µM and the TGI [27] was 39.4 µM. The TGI [28] was 48.6 µM, the TGI [29] was greater than 100 µM and the TGI [30] was greater than 100 µM. The TGI [31] was greater than 100 µM, the TGI [32] was greater than 100 µM and the TGI [33] was 73 µM. The TGI [34] was 51.4 µM, the TGI [35] was greater than 100 µM and the TGI [36] was greater than 100 µM. The TGI [37] was greater than 100 µM, the TGI [38] was greater than 100 µM and the TGI [39] was greater than 100 µM. It also gave a TGI [40] greater than 100 µM, a TGI [41] greater than 100 µM and a TGI [42] greater than 100 µM. It also gave a TGI [43] greater than 100 µM, a TGI [44] greater than 100 µM and a TGI [45] greater than 100 µM. For the same molecule, the TGI [46] was greater than 100 µM, the TGI [47] was greater than 100 µM and the TGI [48] was 57.3 µM. For the same molecule, the TGI [49] was greater than 100 µM, the TGI [50] was greater than 100 µM and the TGI [51] was greater than 100 µM. It also gave a TGI [52] greater than 100 µM, a TGI [53] greater than 100 µM and a TGI [54] greater than 100 µM. The TGI [55] was greater than 100 µM.

`c1cc2c(c(-c3c4ccccc4nc4ccccc34)c1)CC1(CC2)OCCO1` was tested, and the TGI [1] was greater than 100 µM, the TGI [56] was greater than 100 µM and the TGI [2] was greater than 100 µM. The TGI [3] was greater than 100 µM, the TGI [4] was greater than 100 µM and the TGI [57] was greater than 100 µM. The TGI [6] was greater than 100 µM, the TGI [7] was greater than 100 µM and the TGI [8] was greater than 100 µM. For the same molecule, the TGI [9] was greater than 100 µM, the TGI [10] was greater than 100 µM and the TGI [11] was greater than 100 µM. It also gave a TGI [12] greater than 100 µM, a TGI [13] greater than 100 µM and a TGI [15] greater than 100 µM. The TGI [16] was greater than 100 µM, the TGI [17] was greater than 100 µM and the TGI [18] was greater than 100 µM. For the same molecule, the TGI [19] was greater than 100 µM, the TGI [58] was greater than 100 µM and the TGI [20] was greater than 100 µM. For the same molecule, the TGI [21] was greater than 100 µM, the TGI [22] was greater than 100 µM and the TGI [23] was greater than 100 µM. The TGI [24] was greater than 100 µM, the TGI [25] was greater than 100 µM and the TGI [26] was greater than 100 µM. It also gave a TGI [27] greater than 100 µM, a TGI [29] greater than 100 µM and a TGI [30] greater than 100 µM. For the same molecule, the TGI [31] was greater than 100 µM, the TGI [32] was greater than 100 µM and the TGI [33] was greater than 100 µM. For the same molecule, the TGI [34] was greater than 100 µM, the TGI [35] was greater than 100 µM and the TGI [37] was greater than 100 µM. For the same molecule, the TGI [38] was greater than 100 µM, the TGI [39] was greater than 100 µM and the TGI [41] was greater than 100 µM. The TGI [42] was greater than 100 µM, the TGI [43] was greater than 100 µM and the TGI [44] was greater than 100 µM. The TGI [45] was greater than 100 µM, the TGI [47] was greater than 100 µM and the TGI [48] was greater than 100 µM. The TGI [49] was greater than 100 µM, the TGI [50] was greater than 100 µM and the TGI [59] was greater than 100 µM. The TGI [52] was greater than 100 µM, the TGI [53] was greater than 100 µM and the TGI [54] was greater than 100 µM. The TGI [55] was greater than 100 µM.

Work on `O=NNc1nc(-c2cccnc2)nc2ccccc12` yielded a TGI [1] of 32.8 µM, a TGI [56] greater than 100 µM and a TGI [2] greater than 100 µM. The TGI [3] was greater than 100 µM, the TGI [4] was greater than 100 µM and the TGI [5] was greater than 100 µM. It also gave a TGI [6] greater than 100 µM, a TGI [7] greater than 100 µM and a TGI [8] greater than 100 µM. It also gave a TGI [9] greater than 100 µM, a TGI [10] greater than 100 µM and a TGI [11] greater than 100 µM. It also gave a TGI [14] greater than 100 µM, a TGI [15] greater than 100 µM and a TGI [16] greater than 100 µM. The TGI [18] was greater than 100 µM, the TGI [19] was greater than 100 µM and the TGI [58] was greater than 100 µM. The TGI [20] was greater than 100 µM, the TGI [21] was greater than 100 µM and the TGI [22] was greater than 100 µM. It also gave a TGI [23] greater than 100 µM, a TGI [24] greater than 100 µM and a TGI [25] greater than 100 µM. For the same molecule, the TGI [26] was greater than 100 µM, the TGI [28] was greater than 100 µM and the TGI [29] was greater than 100 µM. For the same molecule, the TGI [30] was greater than 100 µM, the TGI [31] was greater than 100 µM and the TGI [32] was greater than 100 µM. It also gave a TGI [33] greater than 100 µM, a TGI [34] greater than 100 µM and a TGI [37] greater than 100 µM. The TGI [38] was greater than 100 µM, the TGI [39] was greater than 100 µM and the TGI [40] was greater than 100 µM. It also gave a TGI [41] greater than 100 µM, a TGI [42] greater than 100 µM and a TGI [43] greater than 100 µM. The TGI [44] was greater than 100 µM, the TGI [45] was greater than 100 µM and the TGI [46] was greater than 100 µM. It also gave a TGI [47] greater than 100 µM, a TGI [49] greater than 100 µM and a TGI [50] greater than 100 µM. The TGI [59] was greater than 100 µM, the TGI [51] was greater than 100 µM and the TGI [52] was greater than 100 µM. For the same molecule, the TGI [53] was greater than 100 µM, the TGI [54] was greater than 100 µM and the TGI [55] was greater than 100 µM.

`CCOC(=O)C(NC(=O)Nc1ccc(Cl)c(Cl)c1)C(F)(F)F` (configuration not stated) gave a TGI [1] greater than 100 µM, a TGI [56] greater than 100 µM and a TGI [2] greater than 100 µM. The TGI [3] was greater than 100 µM, the TGI [4] was greater than 100 µM and the TGI [57] was greater than 100 µM. For the same molecule, the TGI [7] was greater than 100 µM, the TGI [8] was greater than 100 µM and the TGI [9] was greater than 100 µM. It also gave a TGI [10] greater than 100 µM, a TGI [12] greater than 100 µM and a TGI [13] greater than 100 µM. It also gave a TGI [14] greater than 100 µM, a TGI [16] greater than 100 µM and a TGI [18] greater than 100 µM. It also gave a TGI [58] greater than 100 µM, a TGI [20] greater than 100 µM and a TGI [21] greater than 100 µM. It also gave a TGI [25] greater than 100 µM, a TGI [26] greater than 100 µM and a TGI [29] greater than 100 µM. For the same molecule, the TGI [30] was greater than 100 µM, the TGI [31] was greater than 100 µM and the TGI [32] was greater than 100 µM. For the same molecule, the TGI [33] was greater than 100 µM, the TGI [35] was greater than 100 µM and the TGI [36] was greater than 100 µM. The TGI [37] was greater than 100 µM, the TGI [38] was greater than 100 µM and the TGI [39] was greater than 100 µM. For the same molecule, the TGI [40] was greater than 100 µM, the TGI [41] was greater than 100 µM and the TGI [42] was greater than 100 µM. The TGI [43] was greater than 100 µM, the TGI [45] was greater than 100 µM and the TGI [46] was greater than 100 µM. For the same molecule, the TGI [47] was greater than 100 µM, the TGI [48] was greater than 100 µM and the TGI [50] was greater than 100 µM. The TGI [59] was greater than 100 µM, the TGI [51] was greater than 100 µM and the TGI [52] was greater than 100 µM. For the same molecule, the TGI [53] was greater than 100 µM and the TGI [55] was greater than 100 µM.

— PubChem BioAssay (NCI)
